{"source": "patent US11883491B2", "about": "“Compositions and methods for prevention and treatment of hearing loss” (ST. JUDE CHILDREN'S RESEARCH HOSPITAL, priority 2017, dated 2024)", "key": {"[1]": {"tested_on": "FVB mice", "assay": "Auditory brainstem response thresholds after transtympanic injection in adult mice", "assay_type": "in vivo, mouse", "details": "adult (>P21) FVB mice, 10 μg transtympanic (TT) injection, 7 days after", "procedure": "(§1) To further evaluate the use of an inhibitor of EGFR signaling in HC regeneration, the toxicity of AG1478 in neonatal and adult mice was assessed."}, "[2]": {"tested_on": "FVB mice", "assay": "Toxicity (median lethal dose) in neonatal mice", "assay_type": "in vivo, mouse", "details": "postnatal day 1 (P1) FVB mice, intraperitoneal (IP) injection; estimated", "procedure": "as §1"}, "[3]": {"tested_on": "neonatal mouse cochlear explants", "assay": "Inhibitor alone: proliferation and differentiation of endogenous SCs and HCs in neonatal cochlear explants", "assay_type": "cell-based", "details": "inhibitor by itself, after 7 days", "text": "Atoh1, a transcription factor, can convert non-sensory supporting cells (SCs) to hair cells (HCs) in neonatal and juvenile mammalian cochleae (Izumikawa, et al. (2005) Nature Med. 11:271-6; Kelly, et al. (2012) J. Neurosci. 32:6699-710; Liu, et al. (2012) J. Neurosci. 32:6600-10). Ectopic expression of Atoh1 has been approved for clinical trials as a gene therapy. However, Atoh1-induced HC conversion is inefficient (<17%), incomplete (lacking mature HC markers), and age-dependent (no response in adult cochlea) (Izumikawa, et al. (2008) Hearing Res. 240:52-6; Liu, et al. (2012) J. Neurosci. 32:6600-10). Using RNA-seq analysis to compare the transcriptome of SCs, endogenous outer HCs (OHCS), and Atoh1-induced HCs (cHCs) in adult mouse cochleae, it was observed that the epidermal growth factor receptor (EGFR) signaling is enriched in SCs and cHCs using gene set enrichment analysis (GSEA). To validate the role of EGFR pathway ex vivo, neonatal mouse cochlear explants were treated with a potent EGFR inhibitor (AG1478). […] In addition, inhibitors targeting proteins downstream of EGFR signaling were tested including WP1066 (STAT3 inhibitor), LY 294002 (PI3K inhibitor), U0126 (MEK inhibitor), and U73122 (PLC inhibitor) at various doses above their respective EC50 values. […]"}, "[4]": {"tested_on": "neonatal mouse cochlear explants", "assay": "Atoh1-induced hair cell conversion in Atoh1-transfected neonatal mouse cochlear explants", "assay_type": "cell-based", "experimental": "Representative images show the immunostaining of cochlear explants transfected with Atoh1-IRES-GFP and treated with vehicle (FIGS. 1A and 1C) or 100 nM AG1478 (FIGS. 1B and 1D). Expression of hair cell marker Myo6 (↑) and Atoh1-transfected cells (GFP, ? ) are shown.\nAtoh1 is transfected (O/E) in all conditions."}, "[5]": {"tested_on": "mouse cochlear explants", "details": "for protection against cisplatin-induced hair cell loss: cochlear explants, screen of 75 kinase inhibitors", "experimental": "(§2) A screen of a library composed of 75 kinase inhibitors was conducted to identify inhibitors that protect against cisplatin-induced hair cell loss."}, "[6]": {"tested_on": "HEI-OC1 cells", "assay": "Protection against cisplatin-induced Caspase-3/7 activity / cell death in HEI-OC1 cells", "assay_type": "cell-based, mouse", "details": "for protection against cisplatin-induced cell death: HEI-OC1, screen of 75 kinase inhibitors; for pIC50: Mus musculus, HEI-OC1 cells", "experimental": "as §2"}, "[7]": {"tested_on": "mouse cochlear explants", "assay": "tissue or blood", "details": "read-out: IC50, protection against cisplatin-induced hair cell loss", "experimental": "as §2"}, "[8]": {"tested_on": "HEI-OC1 cells", "details": "CELLTITER-GLO", "experimental": "as §2"}}, "note": "pIC50: −log10 of the molar value.", "data": [{"smiles": "COc1cc2ncnc(Nc3cccc(Cl)c3)c2cc1OC", "note": "[AG1478, AG 1478]", "values": [{"measurement": "changes in auditory brainstem response (ABR) thresholds", "setting": "[1]", "result": "no significant changes"}, {"measurement": "median lethal dose (LD50)", "setting": "[2]", "result": 30, "unit": "mg/kg"}, {"measurement": "impact on the proliferation and differentiation of endogenous SCs and HCs", "setting": "[3]", "result": "no impact"}, {"measurement": "Atoh1-induced hair cell conversion (immunostaining Myo6/GFP)", "setting": "[4]; 100 nM AG1478 vs vehicle, Atoh1-IRES-GFP transfected explants", "result": "increased"}, {"measurement": "Atoh1-induced HC conversion from explant SCs", "setting": "[4]; AG1478 combined with Atoh1, from 24.7% without inhibitor, FIGS. 1A-1D", "result": 80.6, "unit": "%"}]}, {"smiles": "CC1(COc2ccc3c(c2)ncn3-c2ccc3cccc(N4CCC(N)CC4)c3n2)COC1", "note": "[CRENOLANIB, Crenolanib]", "values": [{"measurement": "protection against cisplatin-induced hair cell loss", "setting": "[5]", "result": "potently protected"}, {"measurement": "protection against cisplatin-induced cell death", "setting": "[6]", "result": "potently protected"}]}, {"smiles": "CC(C)(C)c1nc(-c2cccc(NS(=O)(=O)c3c(F)cccc3F)c2F)c(-c2ccnc(N)n2)s1", "note": "[GSK2118436A, dabrafenib]", "values": [{"measurement": "protection against cisplatin-induced hair cell loss", "setting": "[5]", "result": "potently protected"}, {"measurement": "protection against cisplatin-induced cell death", "setting": "[6]", "result": "potently protected"}]}, {"smiles": "FC(F)(F)c1ccc(/C=C/c2nc(COc3ccc(CCCCn4ccnn4)cc3)co2)cc1", "note": "[MUBRITINIB, Mubritinib]", "values": [{"measurement": "pIC50", "setting": "[7]", "result": 8.60}, {"measurement": "protection against cisplatin-induced hair cell loss", "setting": "[5]", "result": "potently protected"}, {"measurement": "LD50", "setting": "[5]; mouse cochlear explants", "result": "> 500", "unit": "nM"}, {"measurement": "Therapeutic Index", "setting": "[5]; mouse cochlear explants, LD50/IC50", "result": "> 200"}, {"measurement": "protection against cisplatin-induced cell death", "setting": "[6]", "result": "potently protected"}, {"measurement": "pIC50", "setting": "[6]", "result": 8.40}, {"measurement": "LD50", "setting": "[8]", "result": "> 55", "unit": "µM"}]}, {"smiles": "CCOc1cc2ncc(C#N)c(Nc3ccc(F)c(Cl)c3)c2cc1NC(=O)/C=C/CN(C)C", "note": "[PELITINIB, Pelitinib]", "values": [{"measurement": "protection of outer hair cells against cisplatin-induced hair cell loss", "setting": "[5]; 1 hour pre-incubation, N=3", "result": 49, "unit": "%"}, {"measurement": "pIC50", "setting": "[6]; cisplatin-Glo 3/7", "result": 6.22}]}, {"smiles": "O=C(Nc1cccc(Cl)c1)Nc1ncc(CCNc2ncnc3ccsc23)s1", "note": "[SNS314]", "values": [{"measurement": "protection against cisplatin-induced hair cell loss", "setting": "[5]", "result": "potently protected"}, {"measurement": "protection against cisplatin-induced cell death", "setting": "[6]", "result": "potently protected"}]}]}
